Laboratory results: patent US9296725B2, “Heterocyclyl pyrimidine analogues as TYK2 inhibitors” (Cellzome Limited, priority 2012, dated 2016)
Read-outs that look alike come from different tables or passages of the source.

Columns and labels:
TYK2 = target: T1, TYK2 (Homo sapiens, UniProt P29597); test: Kinobeads assay, TYK2 (competition binding in mixed Molt4/Ramos cell lysate, dot blot detection)
T1 construct: endogenous in cells; host or cells: Molt4 (ATCC CRL-1582) and Ramos (ATCC CRL-1596), mixed lysate 1:2
T1 sequence (P29597 whole entry): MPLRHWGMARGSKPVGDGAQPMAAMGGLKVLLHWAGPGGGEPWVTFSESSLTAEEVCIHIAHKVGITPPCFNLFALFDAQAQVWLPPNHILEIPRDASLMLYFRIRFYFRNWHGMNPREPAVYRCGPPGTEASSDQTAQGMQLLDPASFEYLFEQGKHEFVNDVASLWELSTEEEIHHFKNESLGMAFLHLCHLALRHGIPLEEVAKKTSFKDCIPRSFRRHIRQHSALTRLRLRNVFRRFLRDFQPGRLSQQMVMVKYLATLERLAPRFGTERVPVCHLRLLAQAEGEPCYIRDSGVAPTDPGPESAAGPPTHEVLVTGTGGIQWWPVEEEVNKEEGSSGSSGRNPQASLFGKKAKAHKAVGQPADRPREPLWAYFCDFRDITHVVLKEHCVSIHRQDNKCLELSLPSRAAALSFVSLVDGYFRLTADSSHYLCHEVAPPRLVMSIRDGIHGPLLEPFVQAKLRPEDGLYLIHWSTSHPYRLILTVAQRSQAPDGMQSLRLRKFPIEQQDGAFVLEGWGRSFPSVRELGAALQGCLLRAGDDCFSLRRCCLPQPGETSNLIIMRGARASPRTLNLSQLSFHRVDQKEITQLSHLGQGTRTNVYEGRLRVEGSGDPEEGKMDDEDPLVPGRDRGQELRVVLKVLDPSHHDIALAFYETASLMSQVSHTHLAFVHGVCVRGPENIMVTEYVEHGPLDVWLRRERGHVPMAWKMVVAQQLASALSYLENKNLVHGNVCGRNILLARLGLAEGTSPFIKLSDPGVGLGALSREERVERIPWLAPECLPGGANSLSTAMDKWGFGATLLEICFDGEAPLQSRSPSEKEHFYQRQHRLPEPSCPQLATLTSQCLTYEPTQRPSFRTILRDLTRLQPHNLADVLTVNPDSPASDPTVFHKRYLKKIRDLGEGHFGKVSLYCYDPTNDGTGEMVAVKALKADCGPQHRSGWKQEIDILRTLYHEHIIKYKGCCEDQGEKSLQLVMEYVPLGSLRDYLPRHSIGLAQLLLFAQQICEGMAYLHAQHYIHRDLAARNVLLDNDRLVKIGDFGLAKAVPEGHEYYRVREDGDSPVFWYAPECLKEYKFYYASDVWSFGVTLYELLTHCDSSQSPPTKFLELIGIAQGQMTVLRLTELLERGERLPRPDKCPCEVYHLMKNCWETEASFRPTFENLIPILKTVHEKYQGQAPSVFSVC
Protocol: (§1) The compounds of the present invention as described in the previous examples were tested in a Kinobeads™ assay as described for ZAP-70 (WO-A 2007/137867). Briefly, test compounds (at various concentrations) and the affinity matrix with the immobilized aminopyrido-pyrimidine ligand 24 were added to cell lysate aliquots and allowed to bind to the proteins in 10 the lysate sample. After the incubation time the beads with captured proteins were separated from the lysate. Bound proteins were then eluted and the presence of TYK2 and JAK2 was detected and quantified using specific antibodies in a dot blot procedure and the Odyssey infrared detection system. Dose response curves for individual kinases were generated and IC50 values calculated. Kinobeads™ assays have been previously described (WO-A 2007/137867; WO-A 2006/134056).
(§2) The affinity matrix was washed two times with 15 mL of 1×DP buffer containing 0.2% NP40 (IGEPAL® CA-630, Sigma, #13021) and then resuspended in 1×DP buffer containing 0.2% NP40 (3% beads slurry). 5×DP buffer: 250 mM Tris-HCl pH 7.4, 25% Glycerol, 7.5 mM MgCl2, 750 mM NaCl, 5 mM Na3VO4; filter the 5×DP buffer through a 0.22 μm filter and store in aliquots at −80° C. The 5×DP buffer is diluted with H2O to 1×DP buffer containing 1 mM DTT and 25 mM NaF.
(§3) Stock solutions of test compounds were prepared in DMSO. In a 96 well plate 30 μL solution of diluted test compounds at 5 mM in DMSO were prepared. Starting with this solution a 1:3 dilution series (9 steps) was prepared. For control experiments (no test compound) a buffer containing 2% DMSO was used.
(§4) Molt4 cells (ATCC catalogue number CRL-1582) and Ramos cells (ATCC catalogue number CRL-1596) were grown in 1 L Spinner flasks (Integra Biosciences, #182101) in suspension in RPMI 1640 medium (Invitrogen, #21875-034) supplemented with 10% Fetal Bovine Serum (Invitrogen) at a density between 0.15×10^6 and 1.2×10^6 cells/mL. Cells were harvested by centrifugation, washed once with 1×PBS buffer (Invitrogen, #14190-094) and cell pellets were frozen in liquid nitrogen and subsequently stored at −80° C. Cells were homogenized in a Potter S homogenizer in lysis buffer: 50 mM Tris-HCl, 0.8% NP40, 5% glycerol, 150 mM NaCl, 1.5 mM MgCl2, 25 mM NaF, 1 mM sodium vanadate, 1 mM DTT, pH 7.5. One complete EDTA-free tablet (protease inhibitor cocktail, Roche Diagnostics, 1873580) per 25 mL buffer was added. The material was dounced 10 times using a mechanized POTTER S, transferred to 50 mL falcon tubes, incubated for 30 minutes on ice and spun down for 10 minutes at 20,000 g at 4° C. (10,000 rpm in Sorvall SLA600, precooled). The supernatant was transferred to an ultracentrifuge (UZ)-polycarbonate tube (Beckmann, 355654) and spun for 1 hour at 100.000 g at 4° C. (33.500 rpm in Ti50.2, precooled). The supernatant was transferred again to a fresh 50 mL falcon tube, the protein concentration was determined by a Bradford assay (BioRad) and samples containing 50 mg of protein per aliquot were prepared. The samples were immediately used for experiments or frozen in liquid nitrogen and stored frozen at −80° C.
(§5) Cell lysate (approximately 50 mg protein per plate) was thawed in a water bath at room temperature and then stored on ice. To the thawed cell lysate 1×DP 0.8% NP40 buffer containing protease inhibitors (1 tablet for 25 mL buffer; EDTA-free protease inhibitor cocktail; Roche Diagnostics 1873580) was added in order to reach a final protein concentration of 10 mg/mL total protein. The diluted cell lysate was stored on ice. Mixed Molt4/Ramos lysate was prepared by combining one volume of Molt4 lysate and two volumes of Ramos lysate (ratio 1:2).
(§6) To a 96 well filter plate (Multiscreen HTS, BV Filter Plates, Millipore #MSBVN1250) were added per well: 100 μL affinity matrix (3% beads slurry), 3 μL of compound solution, and 50 μL of diluted lysate. Plates were sealed and incubated for 3 hours in a cold room on a plate shaker (Heidolph tiramax 1000) at 750 rpm. […]

JAK2 = target: T2, JAK2 (Homo sapiens, UniProt O60674); test: Kinobeads assay, JAK2 (competition binding in mixed Molt4/Ramos cell lysate, dot blot detection); conditions: read-out: JAK2 Band (Kinobeads assay potency, IC50)
T2 construct: endogenous in cells; host or cells: Molt4 (ATCC CRL-1582) and Ramos (ATCC CRL-1596), mixed lysate 1:2
T2 sequence (O60674 whole entry): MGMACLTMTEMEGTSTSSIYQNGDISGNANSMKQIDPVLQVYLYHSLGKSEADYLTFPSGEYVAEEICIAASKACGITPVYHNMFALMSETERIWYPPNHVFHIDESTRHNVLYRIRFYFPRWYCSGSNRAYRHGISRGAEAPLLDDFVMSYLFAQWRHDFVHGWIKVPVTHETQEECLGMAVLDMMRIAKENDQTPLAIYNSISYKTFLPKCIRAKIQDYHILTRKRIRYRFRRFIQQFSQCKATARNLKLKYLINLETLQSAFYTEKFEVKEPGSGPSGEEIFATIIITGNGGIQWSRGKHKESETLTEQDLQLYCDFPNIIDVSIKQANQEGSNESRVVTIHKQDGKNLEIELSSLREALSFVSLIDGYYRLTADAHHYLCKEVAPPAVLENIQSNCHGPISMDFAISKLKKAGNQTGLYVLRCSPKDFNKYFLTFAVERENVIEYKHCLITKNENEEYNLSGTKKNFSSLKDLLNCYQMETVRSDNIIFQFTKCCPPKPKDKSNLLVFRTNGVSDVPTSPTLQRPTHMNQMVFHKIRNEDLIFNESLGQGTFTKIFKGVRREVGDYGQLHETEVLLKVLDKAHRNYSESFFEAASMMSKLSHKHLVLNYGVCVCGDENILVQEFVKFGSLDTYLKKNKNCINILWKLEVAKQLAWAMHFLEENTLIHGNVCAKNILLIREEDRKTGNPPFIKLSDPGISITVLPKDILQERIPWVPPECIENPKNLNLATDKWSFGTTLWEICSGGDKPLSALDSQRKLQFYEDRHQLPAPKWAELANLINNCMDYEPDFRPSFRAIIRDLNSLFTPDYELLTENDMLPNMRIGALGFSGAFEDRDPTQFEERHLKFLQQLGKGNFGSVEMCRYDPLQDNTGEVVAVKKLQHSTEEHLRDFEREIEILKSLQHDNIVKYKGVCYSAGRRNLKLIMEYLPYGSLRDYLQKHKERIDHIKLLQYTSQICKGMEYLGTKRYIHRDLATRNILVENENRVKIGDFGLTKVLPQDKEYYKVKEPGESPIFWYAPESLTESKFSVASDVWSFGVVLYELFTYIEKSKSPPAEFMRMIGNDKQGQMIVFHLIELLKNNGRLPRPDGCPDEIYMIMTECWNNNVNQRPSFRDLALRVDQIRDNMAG
Protocol: as §1, §2, §3, §4, §5, §6

[1] = Kinobeads assay, Molt4/Ramos lysate, read-out: TYK2 Band (Kinobeads assay potency, IC50)

| SMILES | IC50 (TYK2; [1]) [nM] | IC50 (JAK2) [nM] | IC50 (TYK2; read-out: TYK2 IC50) [nM] |
| --- | --- | --- | --- |
| CNC(=O)Cn1cc(Nc2ncc(Cl)c(NCc3cccc(OC)c3)n2)cn1 [Example I-243] | 100 to 1000 | 1000 to 10000 | – |
| Cn1cc(Cn2cc(Nc3ncc(Cl)c(NCc4c(F)cccc4F)n3)cn2)cn1 [Example I-482] | 100 to 1000 | 1000 to 10000 | – |
| Cc1cnc(Nc2cnn(CC(=O)NC3CC3)c2)nc1NCc1cc(F)cc(F)c1 [Example I-344] | 10 to 100 | 100 to 1000 | – |
| CN(C)C(=O)Cn1cc(Nc2ncc(F)c(NCc3c(F)cccc3F)n2)cn1 [Example I-382] | 10 to 100 | 1000 to 10000 | – |
| CNC(=O)Cn1cc(Nc2ncc(Cl)c(NCc3cccc(C#N)c3)n2)cn1 [Example I-230] | 10 to 100 | 1000 to 10000 | – |
| CS(=O)(=O)Cc1cccc(CNc2nc(Nc3cnn(CC(N)=O)c3)ncc2Cl)c1 [Example I-443] | 100 to 1000 | 1000 to 10000 | – |
| CNC(=O)Cn1cc(Nc2ncc(Cl)c(NCc3c(F)cc(F)cc3F)n2)cn1 [Example I-388] | 10 to 100 | 1000 to 10000 | – |
| COc1ccccc1CNc1nc(Nc2cnn(CCO)c2)ncc1Cl [Example I-185] | 100 to 1000 | 1000 to 10000 | – |
| C[C@@H]1COCCN1C(=O)Cn1cc(Nc2ncc(F)c(NCc3c(F)cc(F)cc3F)n2)cn1 [Example I-40] | 10 to 100 | 1000 to 10000 | – |
| O=C(Cn1cc(Nc2ncc(Cl)c(NCc3c(F)ccc(F)c3F)n2)cn1)NC1CC1 [Example I-335] | ≤ 10 | 100 to 1000 | – |
| CNC(=O)Cn1cc(Nc2ncc(Cl)c(NCc3ccccc3)n2)cn1 [Example I-195] | 100 to 1000 | 1000 to 10000 | – |
| CC(C)NC(=O)Cn1cc(Nc2nccc(NCc3c(Cl)ccc(F)c3Cl)n2)cn1 [Example I-119] | 10 to 100 | > 10000 | – |
| O=C(Cn1cc(Nc2ncc(F)c(NCc3c(F)cc(F)cc3F)n2)cn1)NC1CC1 [Example I-4, N-cyclopropyl-2-(4-((5-fluoro-4-((2,4,6-trifluorobenzyl)amino)pyrimidin-2-yl)amino)-1H-pyrazol-1-yl)acetamide] | 10 to 100 | 1000 to 10000 | – |
| CC(C)NC(=O)Cn1cc(Nc2nccc(NCc3c(F)cncc3F)n2)cn1 [Example I-145] | ≤ 10 | > 10000 | – |
| Cc1cnc(Nc2cnn(CCO)c2)nc1NCc1c(F)cc(F)cc1F [Example I-303] | 10 to 100 | 100 to 1000 | – |
| Cn1cc(Nc2ncc(Cl)c(NCc3c(F)cccc3C(F)(F)F)n2)cn1 [Example I-118] | 10 to 100 | 1000 to 10000 | – |
| Cc1cnc(Nc2cnn(CC(=O)N[C@@H](C)CO)c2)nc1NCc1c(F)cc(F)cc1F [Example I-36] | ≤ 10 | 100 to 1000 | – |
| CNC(=O)Cn1cc(Nc2ncc(F)c(NCc3c(F)ccc(OC)c3F)n2)cn1 [Example I-12] | 10 to 100 | 1000 to 10000 | – |
| COc1ccc(F)c(CNc2nc(Nc3cnn(CCO)c3)ncc2C)c1F [Example I-304] | ≤ 10 | 10 to 100 | – |
| N#Cc1c(F)cccc1CNc1nc(Nc2cnn(CC(N)=O)c2)ncc1Cl [Example I-286] | 100 to 1000 | 100 to 1000 | – |
| Fc1cc(F)c(CNc2nc(Nc3cnn(CC(F)F)c3)ncc2F)c(F)c1 [Example I-464] | 100 to 1000 | > 10000 | – |
| COc1ccc(F)c(CNc2ccnc(Nc3cnn(CC(=O)NC4CC4)c3)n2)c1F [Example I-125] | ≤ 10 | 1000 to 10000 | < 100 |
| CCC(CC)NC(=O)Cn1cc(Nc2ncc(F)c(NCc3c(F)cc(F)cc3F)n2)cn1 [Example I-58] | 10 to 100 | > 10000 | – |
| CC(O)Cn1cc(Nc2ncc(Cl)c(NCc3cccc(F)c3F)n2)cn1 (stereo not shown) [Example I-215] | 100 to 1000 | 100 to 1000 | – |

| SMILES | IC50 (TYK2; [1]) [nM] | IC50 (JAK2) [nM] | IC50 (TYK2; read-out: TYK2 IC50) [nM] |
| --- | --- | --- | --- |
| CC(C)NC(=O)Cn1cc(Nc2ncc(Cl)c(NCc3cccc(OC(F)F)c3)n2)cn1 [Example I-391] | 10 to 100 | 1000 to 10000 | – |
| Cc1cccc(F)c1CNc1ccnc(Nc2cnn(C)c2)n1 [Example I-437] | 10 to 100 | 1000 to 10000 | – |
| O=C(Cn1cc(Nc2ncc(F)c(NCc3cc(F)cc(C(F)(F)F)c3)n2)cn1)N1CCOCC1 [Example I-332] | 100 to 1000 | 1000 to 10000 | – |
| OCCn1cc(Nc2ncc(F)c(NCc3cc(F)ccc3F)n2)cn1 [Example I-203] | ≤ 10 | 10 to 100 | – |
| CNC(=O)Cn1cc(Nc2ncc(F)c(NCc3cccc(OC(F)F)c3)n2)cn1 [Example I-408] | 10 to 100 | > 10000 | – |
| O=C(Cn1cc(Nc2nccc(NCc3c(F)cc(F)cc3F)n2)cn1)N1CCOCC1 [Example I-27] | 10 to 100 | 1000 to 10000 | – |
| N#C[C@@H]1CCN(C(=O)Cn2cc(Nc3ncc(Cl)c(NCc4ccccc4)n3)cn2)C1 [Example I-271] | 10 to 100 | 100 to 1000 | – |
| O=C(Cn1cc(Nc2nccc(NCc3c(F)cccc3Cl)n2)cn1)N1CCOCC1 [Example I-129] | ≤ 10 | > 10000 | – |
| O=C(Cn1cc(Nc2nccc(NCc3c(F)cccc3F)n2)cn1)NC1CC1 [Example I-152] | 10 to 100 | 1000 to 10000 | – |
| CS(=O)(=O)c1ccccc1CNc1nc(Nc2cnn(CC(F)F)c2)ncc1Cl [Example I-471] | 1000 to 10000 | 1000 to 10000 | – |
| FCCn1cc(Nc2ncc(Cl)c(NCc3ccccc3)n2)cn1 [Example I-461] | 1000 to 10000 | 1000 to 10000 | – |
| CS(=O)(=O)c1ccc(F)c(CNc2nc(Nc3cnn(CC(N)=O)c3)ncc2F)c1 [Example I-116] | 10 to 100 | 1000 to 10000 | – |
| COc1c(F)cccc1CNc1nc(Nc2cnn(CC(=O)O)c2)ncc1Cl [Example I-403] | 100 to 1000 | 1000 to 10000 | – |
| Cn1cc(Nc2ncc(Cl)c(NCc3cc(C(F)(F)F)ccc3F)n2)cn1 [Example I-277] | 100 to 1000 | 1000 to 10000 | – |
| COc1ccc(F)c(CNc2nc(Nc3cnn(CC(=O)N4CCOCC4)c3)ncc2C)c1F [Example I-22] | ≤ 10 | 100 to 1000 | – |
| Cn1cc(Nc2ncc(F)c(NCc3cccc(C#N)c3)n2)cn1 [Example I-183] | 10 to 100 | 1000 to 10000 | – |
| CC(C)(C)NC(=O)Cn1cc(Nc2nccc(NCc3c(F)cc(F)cc3F)n2)cn1 [Example I-51] | 10 to 100 | > 10000 | – |
| Cn1cc(Nc2nccc(NCc3c(F)cccc3Cl)n2)cn1 [Example I-55] | 10 to 100 | 1000 to 10000 | – |
| N#Cc1cccc(CNc2nc(Nc3cnn(CCO)c3)ncc2F)c1 [Example I-167] | 10 to 100 | 1000 to 10000 | – |
| CC(O)Cn1cc(Nc2ncc(Cl)c(NCc3ccccc3F)n2)cn1 (stereo not shown) [Example I-213] | 100 to 1000 | 100 to 1000 | – |
| CC(C(N)=O)n1cc(Nc2ncc(Cl)c(NCc3ccccc3)n2)cn1 (stereo not shown) [Example I-285] | 100 to 1000 | 1000 to 10000 | – |
| COc1cc(F)c(CNc2ccnc(Nc3cnn(CC(=O)NC(C)C)c3)n2)c(F)c1 [Example I-64] | 10 to 100 | > 10000 | – |
| COc1ccc(F)c(CNc2ccnc(Nc3cnn(CC(=O)N[C@@H](C)CO)c3)n2)c1F [Example I-133] | ≤ 10 | 1000 to 10000 | – |
| CN(C)C(=O)Cn1cc(Nc2ncc(F)c(NCc3c(F)ccc(F)c3F)n2)cn1 [Example I-411] | 10 to 100 | 1000 to 10000 | – |
